Test results reported in patent US11618761B2, “Phosphonium ion channel blockers and methods for use” (Nocion Therapeutics, Inc., priority 2019, dated 2023).
Where a name gives a salt, the structure may show the parent alone.

How the values were obtained:
NaV1.7 [1] = target: T1, NaV1.7 (Homo sapiens, UniProt Q15858); experiment: Whole cell patch clamp, internal block of NaV1.7 current (compound in internal solution); assay type: cell-based; settings: compound applied internally, 5 Hz stimulation, read-out: Nav1.7 Intracellular Inhibition; for inhibition at 10 µM: % inhibition at 10 μM test concentration; for inhibition at 3 µM: % inhibition at 3 μM test concentration
T1 construct: expressed in transfected cells; tetracycline-inducible, kept under hygromycin and blasticidin selection
T1 sequence (Q15858 whole entry): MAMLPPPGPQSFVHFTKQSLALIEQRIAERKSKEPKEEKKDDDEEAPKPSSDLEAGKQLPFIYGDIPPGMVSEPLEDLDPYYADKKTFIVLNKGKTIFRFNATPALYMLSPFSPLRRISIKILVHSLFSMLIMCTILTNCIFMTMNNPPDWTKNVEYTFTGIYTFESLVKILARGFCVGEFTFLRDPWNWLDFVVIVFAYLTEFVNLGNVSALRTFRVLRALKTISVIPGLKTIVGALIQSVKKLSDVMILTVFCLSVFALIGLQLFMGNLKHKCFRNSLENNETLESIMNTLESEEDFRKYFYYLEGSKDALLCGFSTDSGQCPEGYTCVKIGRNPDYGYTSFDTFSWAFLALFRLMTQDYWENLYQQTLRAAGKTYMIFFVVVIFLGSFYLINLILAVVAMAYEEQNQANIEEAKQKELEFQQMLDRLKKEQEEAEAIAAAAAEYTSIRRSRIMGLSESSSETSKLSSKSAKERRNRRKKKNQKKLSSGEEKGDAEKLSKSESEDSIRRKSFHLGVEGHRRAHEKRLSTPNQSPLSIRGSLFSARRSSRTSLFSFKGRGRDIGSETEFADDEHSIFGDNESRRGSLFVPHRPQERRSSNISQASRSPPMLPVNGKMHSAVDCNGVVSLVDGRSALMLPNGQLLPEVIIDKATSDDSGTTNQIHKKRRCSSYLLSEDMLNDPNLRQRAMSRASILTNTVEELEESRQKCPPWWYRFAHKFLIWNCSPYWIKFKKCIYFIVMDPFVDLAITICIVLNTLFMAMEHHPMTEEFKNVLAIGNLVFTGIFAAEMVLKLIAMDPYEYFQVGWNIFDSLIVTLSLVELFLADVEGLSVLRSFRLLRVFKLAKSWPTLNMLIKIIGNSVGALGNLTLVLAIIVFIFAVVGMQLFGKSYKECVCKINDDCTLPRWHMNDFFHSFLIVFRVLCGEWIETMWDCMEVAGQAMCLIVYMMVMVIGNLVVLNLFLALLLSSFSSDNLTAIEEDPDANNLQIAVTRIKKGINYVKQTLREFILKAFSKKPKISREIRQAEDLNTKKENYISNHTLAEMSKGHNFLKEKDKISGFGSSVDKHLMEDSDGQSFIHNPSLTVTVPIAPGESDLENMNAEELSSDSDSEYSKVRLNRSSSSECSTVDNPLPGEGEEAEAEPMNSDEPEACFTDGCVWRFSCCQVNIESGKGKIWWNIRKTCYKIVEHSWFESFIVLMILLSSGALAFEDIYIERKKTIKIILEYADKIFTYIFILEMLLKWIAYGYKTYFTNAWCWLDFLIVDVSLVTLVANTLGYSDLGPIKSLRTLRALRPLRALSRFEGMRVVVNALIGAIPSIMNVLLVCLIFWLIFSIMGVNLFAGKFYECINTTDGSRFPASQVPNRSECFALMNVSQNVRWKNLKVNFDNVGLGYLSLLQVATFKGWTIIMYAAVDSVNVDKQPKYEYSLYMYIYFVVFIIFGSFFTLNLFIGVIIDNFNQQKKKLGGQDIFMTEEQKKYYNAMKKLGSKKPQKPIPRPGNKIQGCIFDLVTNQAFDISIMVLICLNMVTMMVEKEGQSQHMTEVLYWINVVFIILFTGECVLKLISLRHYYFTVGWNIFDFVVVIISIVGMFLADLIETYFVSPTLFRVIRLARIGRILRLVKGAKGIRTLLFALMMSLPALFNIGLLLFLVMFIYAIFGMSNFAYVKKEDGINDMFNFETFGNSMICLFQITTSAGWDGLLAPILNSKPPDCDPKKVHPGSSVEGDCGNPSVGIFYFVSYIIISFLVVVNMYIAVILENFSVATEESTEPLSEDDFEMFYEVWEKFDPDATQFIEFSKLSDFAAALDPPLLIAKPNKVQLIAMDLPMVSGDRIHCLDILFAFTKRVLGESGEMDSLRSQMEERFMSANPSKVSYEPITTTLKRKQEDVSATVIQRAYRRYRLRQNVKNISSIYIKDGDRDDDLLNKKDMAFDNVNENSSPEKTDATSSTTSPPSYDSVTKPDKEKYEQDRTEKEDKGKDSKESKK
Description: (§1) NaV1.7 was expressed upon induction with tetracycline. Cells were cultured in DMEM containing 10% dialyzed Fetal Bovine Serum (VWR, Radnor, Pa.), 1% Glutamax (VWR, Radnor, Pa.), 1% Penicillin-Streptomycin (VWR, Radnor, Pa.), 100 mg/L Hygromycin (Thermo Fisher Scientific, Waltham, Mass.) and 5 mg/L Blasticidin (Alfa Aesar, Haverhill, Mass.). Cells were grown and maintained at 37° C. in a humidified environment containing 10% CO2 in air. Cells were detached from the culture flask for passage and harvested using 0.05% Trypsin-EDTA (Thermo Fisher Scientific, Waltham, Mass.). To induce NaV1.7, cells were induced with tetracycline (0.1-1 μg/mL, IBI Scientific, Peosta, Iowa) the day before recording and plated onto 24-well plates. Cells were washed with DPBS (VWR, Radnor, Pa.), trypsinized and then triturated five times in 10 mL of growth media to break apart cell aggregates. For one 24-well plate, 2 mL of cell suspension was mixed with 23 mL of fresh growth media and 0.1-1 μg/mL tetracycline added. 1 ml of mixed media with cells was then added to each well of a 24-well plate, with a 12 mm coverslip already placed in the bottom of the well. Cells were then incubated in 37° C. and 10% CO2 overnight.
The intracellular solution contained the following (in mM) CsCl 135, NaCl 10, EGTA 10, HEPES 10, MgCl2 2, adjusted to pH 7.2 with CsOH. The external solution was a normal Ringer solution containing (in mM) NaCl 155, HEPES 10, glucose 10, KCl 3.5, CaCl2) 1.5, MgCl2 1 adjusted to pH 7.4 with NaOH. CsCl was from Alfa Aesar, Haverhill, Mass. All other chemicals were from Sigma-Aldrich, St. Louis, Mo. In order to test the degree of internal block by test compounds the compounds were dissolved in internal solution at the indicated test concentration. […] In order to test the degree of external block by test compounds the compounds were dissolved in external solution at the indicated test concentration.
18-24 hours after cells were induced with tetracycline, coverslips were placed into a chamber filled with Normal Ringer solution at room temperature and the chamber was placed on a microscope. Pipettes were pulled from borosilicate glass on a P97 puller (Sutter Instrument, Novato, Calif.) and were polished with a MF-830 Microforge (Narishige International USA, Inc, Amityville, N.Y.) to have a resistance of 1.5-2.5 MΩ when filled with CsCl internal solution at room temperature. Healthy cells (those that are round and translucent with no visible blemishes) were chosen for seal formation. A seal was formed between the pipette and the cell, and a brief pulse of suction was used to “break in” and establish the whole-cell configuration. The membrane potential was held at −100 mV before the voltage protocol begins. Only cells with series resistance between 1.5-5 MΩ were retained for analysis. The voltage protocol was as follows: Cells were held at −100 mV for 12 ms followed by a hyperpolarizing step to −105 mV for 12 ms to monitor the leak. Cells were then stepped back to −100 mV for 40 ms. Cells were then depolarized to −20 mV for 10 ms and then returned to −100 mV for 26 ms (the FIGURE).
Once the recording was started, the voltage protocol was run at 30 second intervals for 5 minutes to get a stable baseline. This was followed by four 30-second periods of 5 Hz stimulation of the same voltage protocol separated by 1 minute of rest which was then followed by 0.33 Hz stimulation after the last train. Currents were recorded using PatchMaster software with Heka EPC10 (HEKA Electronics, Lambrecht, Germany). Only cells with inward current amplitudes at −20 mV between 400 pA and 4 nA were accepted. In addition, cells having leak currents greater than 10% of their current amplitudes were discarded.
(§2) The data was plotted using the Patchmaster software (HEKA Electronics, Lambrecht, Germany) and was analyzed by plotting the minimum current during the voltage step to −20 mV (peak inward current) as a function of time. […]

[2] = PAMPA membrane permeability assay; assay type: in vitro ADME; settings: pH 7.4 buffer, GIT lipid, 4 hours incubation, 50 uM
Description: The PAMPA assay (pION, Inc., Woburn Mass.) was used to determine the ability of compounds of the invention to cross an artificial lipid membrane by passive diffusion. Test compounds were dissolved in DMSO (10 mM) and diluted 200-fold in buffer (pION Inc., pH 7.4) to provide 50 uM stock solutions. Buffer (150 μL) was added to a UV blank plate and stock solutions (150 μL) were transferred to a UV reference plate. The blank and reference spectrum were read using a spectrophotometer. Stock solutions (200 μL) were added to the donor plate of the PAMPA sandwich plate and an accept plate painted with GIT lipid (pION Inc, 5 μL) was placed on top. Buffer (200 μL) was added to the acceptor plate and the PAMPA sandwich plate was incubated for 4 hours. Aliquots (150 μL) from the acceptor plate were added to a UV plate and read as acceptor spectrum. Aliquots (150 μL) of the donor solutions were added to a UV analysis plate and read as donor spectrum. The permeability coefficient of test compounds was calculated using PAMPA Explorer™ software (version 3.5.0.4) based on the AUC of the reference plate, the donor plate, and the acceptor plate.

NaV1.7 [3] = target: T1, NaV1.7; experiment: Whole cell patch clamp, external block of NaV1.7 current (compound in external solution); assay type: cell-based; settings: % inhibition at 10 μM test concentration, compound applied externally for 5 minutes; read-out: Nav1.7 Extracellular Inhibition
Description: as §1, with “For one 24-well plate, 2 mL of cell suspension was mixed with 23 mL of fresh growth media and 0.1-1 μg/mL tetracycline added. 1 ml of mixed media with cells was then added to each well of a 24-well plate, with a 12 mm coverslip already placed in the bottom of the well. Cells were then incubated in 37° C. and 10% CO2 overnight.” left out
Once the recording was started, the voltage protocol was run at 30 second intervals for 5 minutes to get a stable baseline. […] Currents were recorded using PatchMaster software with Heka EPC10 (HEKA Electronics, Lambrecht, Germany). […]
as §2

CC[P+](CC)(CC)CC(=O)Nc1c(C)csc1C(=O)OC.[Br-] [Compound 1A, triethyl(2-((2-(methoxycarbonyl)-4-methylthiophen-3-yl)amino)-2-oxoethyl) Phosphonium Bromide]
inhibition at 10 µM (NaV1.7 [1]): 40 to 70% | PAMPA (10^−6 cm/s) [2]: + (“+” (<0.1 10^−6 cm/s))

COC(=O)c1scc(C)c1NC(=O)C[P+]1(Cc2ccccc2)CCCCC1.[Br-] [Compound 8A, 1-benzyl-1-(2-((2-(methoxycarbonyl)-4-methylthiophen-3-yl)amino)-2-oxoethyl)phosphinan-1-ium Bromide]
inhibition at 3 µM (NaV1.7 [1]): 70 to 90% | PAMPA (10^−6 cm/s) [2]: ++ (“++” (0.1-2.0 10^−6 cm/s))

COC(=O)c1scc(C)c1NC(=O)C[P+]1(Cc2ccccc2)CCCCC1 [Compound 8]
inhibition at 10 µM (NaV1.7 [3]): < 40%

CCC(C(=O)Nc1c(C)csc1C(=O)OC)[P+]1(Cc2ccccc2)CCCCC1 (stereo not drawn) [Compound 10A, 1-benzyl-1-(1-((2-(methoxycarbonyl)-4-methylthiophen-3-yl)amino)-1-oxobutan-2-yl)phosphinan-1-ium Formate]
inhibition at 3 µM (NaV1.7 [1]): > 90% | PAMPA (10^−6 cm/s) [2]: +++. (“+++” (2.0-10.010^−6 cm/s))

CCCC[P+](CCCC)(CCCC)CC(=O)Nc1c(C)csc1C(=O)OC.[Br-] [Compound 17A, tributyl(2-((2-(methoxycarbonyl)-4-methylthiophen-3-yl)amino)-2-oxoethyl) Phosphonium Bromide]
inhibition at 10 µM (NaV1.7 [1]): 70 to 95% | PAMPA (10^−6 cm/s) [2]: + (“+” (<0.1 10^−6 cm/s))

COC(=O)c1scc(C)c1NC(=O)C[P+](c1ccccc1)(c1ccccc1)c1ccccc1 [Compound 19A]
inhibition at 10 µM (NaV1.7 [1]): 70 to 95%

CC[P+](CC)(CC)CC(=O)Nc1c(C)csc1C(=O)OC(C)(C)C.[Br-] [Compound 21A]
inhibition at 3 µM (NaV1.7 [1]): 70 to 90% | PAMPA (10^−6 cm/s) [2]: + (“+” (<0.1 10^−6 cm/s))
